Results on ten molecules are retold here after article PMC9855386, “Obtaining a Monoclonal Antibody against a Novel Prometryn-Like Hapten and Characterization of Its Selectivity for Triazine Herbicides” (Biosensors, 2022).

In the test the test system is 7D4 mAb (mouse monoclonal anti-prometryn antibody). Kind of test: ic-ELISA cross-reactivity of the 7D4 mAb with triazines. Type of test: binding. The settings on record: for IC50: ic-ELISA, analyte 1000-15.625 and 0 ng/mL; for Cross-Reactivity: relative to prometryn = 100%. On the procedure: The ic-ELISA method was used to screen the best-performing fusion mouse sera. They were used to establish the standard curve of antibodies by detecting the supernatant of positive cells. The buffer required for ic-ELISA was the same as previously reported. The specific steps of the operation are as follows: (1) The coated antigen was added to the microplate by diluting it with the required coating solutions (CBS, pH 9.6, 0.05 mol/L). Each well contained 100 µL, which was incubated at 37 °C for three h before being washed three times with washing buffer (PBST, PBS containing 0.1% Tween-20). (2) With sample dilution buffer (PBSTG, PBST containing 0.1% gelatin), the standard prometryn sample and the antiserum/antibody from mice were diluted to the required concentration. The microplate was incubated for 30 min at 37 °C with 50 µL of diluted antiserum or antibody and standard samples of various concentrations. PBST was used three times to wash the dishes. (3) Then, 100 µL of PBSTG-diluent IgG HRP (labeled goat anti-mouse IgG with HRP) was added to each well. After 30 min at 37 °C, the plate was cleaned three times with PBST. (4) Each well was incubated for 15 min in the dark at 25 °C with 100 µL of TMB color developing solution. To stop the reaction, 50 µL of the hydrochloric acid solution was added to each well. The absorbance at OD450 nm was measured with a TECAN Infinite M200 PRO microplate reader from Männedorf, Switzerland.
The ic-ELISA method was used to determine the ideal antibody and antigen mix. The coating antigen and antibody concentration used in the experiment was 1 mg/mL. The dilution multiples of the coating were 1 × 10^3, 2 × 10^3, 4 × 10^3, and 8 × 10^3. The prometryn standard was 1000 ng/mL. The best concentration combination of antigen and antibody was selected to establish the standard curve of the antibody. Prometryn standards were diluted to 1000, 500, 250, 125, 62.5, 31.25, 15.625, 7.8125, 3.90625, and 0 ng/mL, with PBSTG for subsequent ic-ELISA experiments. The standard curve was determined by ic-ELISA. […] Each measured OD value in the curve is the average of three independent repeats. The 7D4 mAb’s inhibition rate was well linearly correlated with the prometryn concentration. […] The 7D4 mAb type was identified as IgG1 using a mouse antibody isotyping kit from Sigma®, St. Louis, MO, USA.
Eleven triazine herbicides were selected to determine their cross-reactivity with 7D4 mAb. […] The cross-reaction rate with the other seven triazines was less than 1%. The hybridoma cell line 7D4 screened in this study can specifically recognize prometryn. […] The cross-reaction rate may vary depending on the immunoassay format and the competitive hapten preparation used.
(In general: An ELISA detects its analyte on a solid surface through an enzyme-linked reagent.)

For `CCNc1nc(NC(C)C)nc(SC)n1` [Ametryn], the half-inhibitory concentration (IC50) – broadly, the midpoint of a concentration-inhibition curve – worked out at 0.011221 µg/mL and the Cross-Reactivity is 34.77%. Also, the Cross-Reactivity (listed as ametryn) was 34.77%.
In the case of `CCNc1nc(Cl)nc(NC(C)C)n1` [Atrazine], the IC50 was more than 1 µg/mL and the Cross-Reactivity is given as less than 0.39%.
For `CNc1nc(NC(C)C)nc(SC)n1` [Desmetryn], the IC50 stood at 0.021566 µg/mL and the Cross-Reactivity turned out to be 18.09%. Besides, where the note is “listed as desmetryn”, the Cross-Reactivity amounted to 18.09%.
Consider `COc1nc(NC(C)C)nc(NC(C)C)n1` [Prometon], for which the concentration for half-maximal inhibition (IC50) is more than 1 µg/mL and the Cross-Reactivity is reported as less than 0.39%.
Taken in the same sequence, the figures for `CC(C)Nc1nc(Cl)nc(NC(C)C)n1` [Propazine] were 0.398011 µg/mL and 0.98%.
The matching figures for `CCNc1nc(Cl)nc(NCC)n1` [Simazine]: more than 1 µg/mL and less than 0.39%.
On to `CCNc1nc(NCC)nc(SC)n1` [Simetryn], for which the IC50 is more than 1 µg/mL and the Cross-Reactivity is listed as less than 0.39%.
Consider `CCNc1nc(NC(C)(C)C)nc(OC)n1` [Terbumeton], for which the IC50 came to 0.051091 µg/mL and the Cross-Reactivity was 7.64%. Further, the Cross-Reactivity (listed as terbumeton) is recorded as 7.64%.
Turning to `CCNc1nc(Cl)nc(NC(C)(C)C)n1` [Terbuthylazine], the IC50 is more than 1 µg/mL and the Cross-Reactivity is listed as less than 0.39%.
The matching figures for `CCNc1nc(NC(C)(C)C)nc(SC)n1` [Terbutryn]: more than 1 µg/mL and less than 0.39%.
